Test results published in PubChem BioAssay (NCI).
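A five-concentration, 48-hour dose response in 96-well plates underlies each endpoint, interpolated linearly between surrounding concentrations. GI50 marks 50% less growth. TGI marks complete inhibition of growth.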

Tests used:
Assay in all cases: NCI tumour cell line growth inhibition, 48 h
PC-3 prostate = test system: PC-3 prostate
SK-OV-3 ovarian = test system: SK-OV-3 ovarian
IGROV1 ovarian = test system: IGROV1 ovarian
SK-MEL-28 melanoma = test system: SK-MEL-28 melanoma
A549 NSCLC = test system: A549 NSCLC
HCT-15 colon = test system: HCT-15 colon
KM12 colon = test system: KM12 colon
UACC-62 melanoma = test system: UACC-62 melanoma
HCT-116 colon = test system: HCT-116 colon
CAKI-1 renal = test system: CAKI-1 renal
COLO 205 colon = test system: COLO 205 colon
LOX IMVI melanoma = test system: LOX IMVI melanoma
NCI-H460 lung = test system: NCI-H460 lung
HOP-62 NSCLC = test system: HOP-62 NSCLC
T-47D breast = test system: T-47D breast
SN12C renal = test system: SN12C renal
OVCAR-4 ovarian = test system: OVCAR-4 ovarian
SW-620 colon = test system: SW-620 colon
MALME-3M melanoma = test system: MALME-3M melanoma
EKVX NSCLC = test system: EKVX NSCLC
HL-60(TB) leukemia = test system: HL-60(TB) leukemia
MDA-MB-231 breast = test system: MDA-MB-231 breast
M14 melanoma = test system: M14 melanoma
SR leukemia = test system: SR leukemia
K-562 leukemia = test system: K-562 leukemia
TK-10 renal = test system: TK-10 renal
MDA-MB-435 = test system: MDA-MB-435
HT29 colon = test system: HT29 colon
HS 578T breast = test system: HS 578T breast
SK-MEL-5 melanoma = test system: SK-MEL-5 melanoma
RPMI-8226 leukemia = test system: RPMI-8226 leukemia
OVCAR-8 ovarian = test system: OVCAR-8 ovarian
HCC-2998 colon = test system: HCC-2998 colon
HOP-92 NSCLC = test system: HOP-92 NSCLC
UACC-257 melanoma = test system: UACC-257 melanoma
BT-549 breast = test system: BT-549 breast
MOLT-4 leukemia = test system: MOLT-4 leukemia
OVCAR-3 ovarian = test system: OVCAR-3 ovarian
OVCAR-5 ovarian = test system: OVCAR-5 ovarian
DU-145 prostate = test system: DU-145 prostate
NCI-H522 lung = test system: NCI-H522 lung
NCI-H226 lung = test system: NCI-H226 lung
NCI-H23 lung = test system: NCI-H23 lung
CCRF-CEM leukemia = test system: CCRF-CEM leukemia
786-0 renal = test system: 786-0 renal
MCF7 breast = test system: MCF7 breast
UO-31 renal = test system: UO-31 renal
RXF 393 renal = test system: RXF 393 renal
A498 renal = test system: A498 renal
NCI/ADR-RES ovarian = test system: NCI/ADR-RES ovarian
SK-MEL-2 melanoma = test system: SK-MEL-2 melanoma
ACHN renal = test system: ACHN renal

CC(=O)Nc1c(I)c(NC(C)=O)c(I)c(C(=O)O)c1I
GI50 (PC-3 prostate): > 100 µM
TGI (PC-3 prostate): > 100 µM
GI50 (SK-OV-3 ovarian): > 100 µM
TGI (SK-OV-3 ovarian): > 100 µM
GI50 (IGROV1 ovarian): > 100 µM
TGI (IGROV1 ovarian): > 100 µM
GI50 (SK-MEL-28 melanoma): > 100 µM
TGI (SK-MEL-28 melanoma): > 100 µM
GI50 (A549 NSCLC): > 100 µM
TGI (A549 NSCLC): > 100 µM
GI50 (HCT-15 colon): > 100 µM
TGI (HCT-15 colon): > 100 µM
GI50 (KM12 colon): > 100 µM
TGI (KM12 colon): > 100 µM
GI50 (UACC-62 melanoma): > 100 µM
TGI (UACC-62 melanoma): > 100 µM
GI50 (HCT-116 colon): > 100 µM
TGI (HCT-116 colon): > 100 µM
GI50 (CAKI-1 renal): > 100 µM
TGI (CAKI-1 renal): > 100 µM
GI50 (COLO 205 colon): > 100 µM
TGI (COLO 205 colon): > 100 µM
GI50 (LOX IMVI melanoma): > 100 µM
TGI (LOX IMVI melanoma): > 100 µM
GI50 (NCI-H460 lung): > 100 µM
TGI (NCI-H460 lung): > 100 µM
GI50 (HOP-62 NSCLC): > 100 µM
TGI (HOP-62 NSCLC): > 100 µM
GI50 (T-47D breast): > 100 µM
TGI (T-47D breast): > 100 µM
GI50 (SN12C renal): > 100 µM
TGI (SN12C renal): > 100 µM
GI50 (OVCAR-4 ovarian): > 100 µM
TGI (OVCAR-4 ovarian): > 100 µM
GI50 (SW-620 colon): > 100 µM
TGI (SW-620 colon): > 100 µM
GI50 (MALME-3M melanoma): > 100 µM
TGI (MALME-3M melanoma): > 100 µM
GI50 (EKVX NSCLC): > 100 µM
TGI (EKVX NSCLC): > 100 µM
GI50 (HL-60(TB) leukemia): > 100 µM
TGI (HL-60(TB) leukemia): > 100 µM
GI50 (MDA-MB-231 breast): > 100 µM
TGI (MDA-MB-231 breast): > 100 µM
GI50 (M14 melanoma): > 100 µM
TGI (M14 melanoma): > 100 µM
GI50 (SR leukemia): > 100 µM
TGI (SR leukemia): > 100 µM
GI50 (K-562 leukemia): > 100 µM
TGI (K-562 leukemia): > 100 µM
GI50 (TK-10 renal): > 100 µM
TGI (TK-10 renal): > 100 µM
GI50 (MDA-MB-435): > 100 µM
TGI (MDA-MB-435): > 100 µM
GI50 (HT29 colon): > 100 µM
TGI (HT29 colon): > 100 µM
GI50 (HS 578T breast): > 100 µM
TGI (HS 578T breast): > 100 µM
GI50 (SK-MEL-5 melanoma): > 100 µM
TGI (SK-MEL-5 melanoma): > 100 µM
GI50 (RPMI-8226 leukemia): > 100 µM
TGI (RPMI-8226 leukemia): > 100 µM
GI50 (OVCAR-8 ovarian): > 100 µM
TGI (OVCAR-8 ovarian): > 100 µM
GI50 (HCC-2998 colon): > 100 µM
TGI (HCC-2998 colon): > 100 µM
GI50 (HOP-92 NSCLC): > 100 µM
TGI (HOP-92 NSCLC): > 100 µM
GI50 (UACC-257 melanoma): > 100 µM
TGI (UACC-257 melanoma): > 100 µM
GI50 (BT-549 breast): > 100 µM
TGI (BT-549 breast): > 100 µM
GI50 (MOLT-4 leukemia): > 100 µM
TGI (MOLT-4 leukemia): > 100 µM
GI50 (OVCAR-3 ovarian): > 100 µM
TGI (OVCAR-3 ovarian): > 100 µM
GI50 (OVCAR-5 ovarian): > 100 µM
TGI (OVCAR-5 ovarian): > 100 µM
GI50 (DU-145 prostate): > 100 µM
TGI (DU-145 prostate): > 100 µM
GI50 (NCI-H522 lung): > 100 µM
TGI (NCI-H522 lung): > 100 µM
GI50 (NCI-H226 lung): > 100 µM
TGI (NCI-H226 lung): > 100 µM
GI50 (NCI-H23 lung): > 100 µM
TGI (NCI-H23 lung): > 100 µM
GI50 (CCRF-CEM leukemia): > 100 µM
TGI (CCRF-CEM leukemia): > 100 µM
GI50 (786-0 renal): > 100 µM
TGI (786-0 renal): > 100 µM
GI50 (MCF7 breast): > 100 µM
TGI (MCF7 breast): > 100 µM
GI50 (UO-31 renal): > 100 µM
TGI (UO-31 renal): > 100 µM
GI50 (RXF 393 renal): > 100 µM
TGI (RXF 393 renal): > 100 µM
GI50 (A498 renal): > 100 µM
TGI (A498 renal): > 100 µM
GI50 (NCI/ADR-RES ovarian): > 100 µM
TGI (NCI/ADR-RES ovarian): > 100 µM
GI50 (SK-MEL-2 melanoma): > 100 µM
TGI (SK-MEL-2 melanoma): > 100 µM
GI50 (ACHN renal): > 100 µM
TGI (ACHN renal): > 100 µM
